In US7473688B2, “Indolobenzazepine HCV NS5B inhibitors” (Bristol-Myers Squibb Company, priority 2005, dated 2009):
Like-named read-outs stand apart in the source and are kept apart here.

Tests used:
HCV NS5B = target: T1, HCV NS5B (Hepatitis C virus genotype 1b, UniProt Q9WMX2); test: HCV NS5B RdRp enzyme assay (preincubation protocol); type: biochemical
T1 construct: The protein was expressed with an 18 amino acid C-terminal truncation to enhance the solubility; made in house; host or cells: E. coli BL21 (DE3), pET21a
Summary of the method: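 C-terminally truncated (Δ18) genotype 1b NS5B from E. coli, 14 nM, added to compound, then polyA template (0.2 nM), 3H-UTP (0.29 μM) and oligo-dT12 primer precaptured on streptavidin SPA beads. 4 h at 30 °C, pH 7.5, 2% DMSO; SPA readout; IC50 from seven concentrations by logistic fit.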

HCV replicon = HCV replicon FRET assay; type: cell-based; settings: Hepatitis C virus, FRET assay, read-out: EC50*
Summary of the method: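 HCV replicon cells, with or without Renilla luciferase reporter, incubated with titrated compounds at 37 °C; Alamar blue read for cytotoxicity. NS3 protease activity read from lysates with 20 μM EDANS/DABCYL FRET peptide (340/490 nm, kinetic), or by Dual-Glo luciferase. Background from highest protease-inhibitor wells; EC50 = 50% signal reduction.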

T1 sequence (Q9WMX2 2420-2992): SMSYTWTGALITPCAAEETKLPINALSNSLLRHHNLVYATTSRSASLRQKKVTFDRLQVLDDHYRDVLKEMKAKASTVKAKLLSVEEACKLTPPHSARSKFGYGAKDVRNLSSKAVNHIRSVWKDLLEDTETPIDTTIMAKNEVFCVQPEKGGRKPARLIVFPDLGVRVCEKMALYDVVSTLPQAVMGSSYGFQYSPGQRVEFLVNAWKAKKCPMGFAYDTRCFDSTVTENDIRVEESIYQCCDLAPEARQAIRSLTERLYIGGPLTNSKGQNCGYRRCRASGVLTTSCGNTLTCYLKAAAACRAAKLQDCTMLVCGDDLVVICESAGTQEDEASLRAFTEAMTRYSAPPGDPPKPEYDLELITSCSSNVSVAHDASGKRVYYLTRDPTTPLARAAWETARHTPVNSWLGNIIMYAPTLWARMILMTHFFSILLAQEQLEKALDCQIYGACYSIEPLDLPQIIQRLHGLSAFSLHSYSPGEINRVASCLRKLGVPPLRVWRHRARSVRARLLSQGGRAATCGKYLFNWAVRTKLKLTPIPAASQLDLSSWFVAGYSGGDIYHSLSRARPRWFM

SMILES | IC50 (HCV NS5B; Table 1, read-out: IC50*) [nM] | EC50 (HCV replicon; Table 1) [nM] | IC50 (HCV NS5B; Table 1a, read-out: IC50*) [nM] | EC50 (HCV replicon; Table 1a) [nM]
O=C(O)c1ccc2c(C3CCCCC3)c3n(c2c1)CC(C(=O)N1CCN(C(=O)N2CCOCC2)CC1)=Cc1ccccc1-3 | 10 to 1000 | 70 to 1000 | – | –
O=C(NS(=O)(=O)N1CCOCC1)c1ccc2c(C3CCCCC3)c3n(c2c1)CC(C(=O)N1CCOCC1)=Cc1ccccc1-3 | 10 to 1000 | 70 to 1000 | – | –
O=C(NS(=O)(=O)N1CCOCC1)c1ccc2c(C3CCCCC3)c3n(c2c1)CC(C(=O)N1CCOCC1)Cc1ccccc1-3 (stereo not shown) | 10 to 1000 | 70 to 1000 | – | –
CN1CCN(S(=O)(=O)NC(=O)c2ccc3c(C4CCCCC4)c4n(c3c2)CC(C(=O)N2CCOCC2)=Cc2ccccc2-4)CC1 | 10 to 1000 | 70 to 1000 | – | –
O=C(NS(=O)(=O)N1CCOCC1)c1ccc2c(C3CCCCC3)c3n(c2c1)CC(C(=O)N1CCC(N2CCOCC2)CC1)=Cc1ccccc1-3 | 10 to 1000 | 70 to 1000 | – | –
C[C@@H]1CN(C(=O)C2=Cc3ccccc3-c3c(C4CCCCC4)c4ccc(C(=O)NS(=O)(=O)N5CCOCC5)cc4n3C2)C[C@H](C)O1 | 10 to 1000 | 70 to 1000 | – | –
CC(=O)N1CCN(C(=O)C2=Cc3ccccc3-c3c(C4CCCCC4)c4ccc(C(=O)NS(=O)(=O)N5CCOCC5)cc4n3C2)CC1 | 10 to 1000 | 70 to 1000 | – | –
COC(=O)C1=Cc2ccccc2-c2c(C3CCCCC3)c3ccc(C(=O)NS(=O)(=O)N4CCOCC4)cc3n2C1 | 10 to 1000 | 70 to 1000 | – | –
COC(=O)c1ccc2c(C3CCCCC3)c3n(c2c1)CC(NC(=O)N1C[C@@H](C)O[C@@H](C)C1)Cc1cc(OC)ccc1-3 (stereo partly shown) | – | – | 10 to 1000 | 30 to 1000
COc1ccc2c(c1)C=C(C(=O)N1CCC(C(=O)N3CCOCC3)CC1)Cn1c-2c(C2CCCCC2)c2ccc(C(=O)NS(=O)(=O)N(C)C)cc21 | – | – | 10 to 1000 | 30 to 1000
COc1ccc2c(c1)C=C(C(=O)N1CCOC(CNC(C)=O)C1)Cn1c-2c(C2CCCCC2)c2ccc(C(=O)NS(=O)(=O)N(C)C)cc21 (stereo not shown) | – | – | < 20 | 30 to 1000
COc1ccc2c(c1)C=C(C(=O)N1C[C@@H](C)N(C(C)=O)[C@@H](C)C1)Cn1c-2c(C2CCCCC2)c2ccc(C(=O)NS(=O)(=O)N(C)C)cc21 | – | – | 10 to 1000 | 30 to 1000
COc1ccc(-c2[nH]c3cc(C(=O)NS(=O)(=O)N(C)C)ccc3c2C2CCCCC2)c(C(=O)N(C)CC(=O)N(C)C)c1 | – | – | 10 to 1000 | 30 to 1000
CC(=O)NN(C)C(=O)C1Cc2ccccc2-c2c(C3CCCCC3)c3ccc(C(=O)NS(=O)(=O)N(C)C)cc3n2C1 (stereo not shown) | – | – | 10 to 1000 | 30 to 1000
COc1ccc2c(c1)C=C(C(=O)N(C)C[C@@H]1CCCO1)Cn1c-2c(C2CCCCC2)c2ccc(C(=O)NS(=O)(=O)N(C)C)cc21 | – | – | 10 to 1000 | 30 to 1000
COc1ccc2c(c1)C=C(C(=O)N(C)C[C@@H]1CCCO1)Cn1c-2c(C2CCCCC2)c2ccc(C(=O)O)cc21 | – | – | 10 to 1000 | 1000 to 10000
CCOC(=O)[C@H]1C[C@@H](O)CN1C(=O)C1=Cc2cc(OC)ccc2-c2c(C3CCCCC3)c3ccc(C(=O)NS(=O)(=O)N(C)C)cc3n2C1 | – | – | < 20 | 30 to 1000
COc1ccc2c(c1)C=C(C(=O)N1CCN(C(=O)C3CC3)CC1)Cn1c-2c(C2CCCCC2)c2ccc(C(=O)NS(=O)(=O)N(C)C)cc21 | – | – | 10 to 1000 | 30 to 1000
COc1ccc2c(c1)CC(C(=O)N(C)C1CCOCC1)Cn1c-2c(C2CCCCC2)c2ccc(C(=O)NS(=O)(=O)N(C)C)cc21 (stereo not shown) | – | – | 10 to 1000 | 30 to 1000
COc1ccc2c(c1)CC(C(=O)N(C)C1CCOCC1)Cn1c-2c(C2CCCCC2)c2ccc(C(=O)O)cc21 (stereo not shown) | – | – | < 20 | 30 to 1000
COc1ccc2c(c1)CC(NC(=O)N1CCOC(CNC(C)=O)C1)Cn1c-2c(C2CCCCC2)c2ccc(C(=O)NS(=O)(=O)N(C)C)cc21 (stereo not shown) | – | – | < 20 | 30 to 1000
COc1ccc2c(c1)C=C(C(=O)N1CCOC(CO)C1)Cn1c-2c(C2CCCCC2)c2ccc(C(=O)NS(=O)(=O)N(C)C)cc21 (stereo not shown) | – | – | 10 to 1000 | 30 to 1000
COc1ccc2c(c1)C=C(C(=O)N1CC(C)CC(O)C1(C)C)Cn1c-2c(C2CCCCC2)c2ccc(C(=O)NS(=O)(=O)N(C)C)cc21 (stereo not shown) | – | – | < 20 | 30 to 1000
